Legend:
c-Kit(V654A) = target: T1, c-Kit(V654A) (Homo sapiens, UniProt P10721, V654A); assay: c-Kit(V654A) kinase assay (33P-ATP filter binding); assay type: biochemical; details: Table 2, isoxazole vs corresponding triazole derivatives; 200 μM ATP, 40 minutes; read-out: Inhibition (IC50) of c-Kit (V654A)
T1 construct: amino acids 544-end; GST (N)
Protocol: • HPLC/MS: Agilent 1200/6100 • eluent A: water+0.05% formic acid • eluent B: acetonitrile+0.04% formic acid • column: Chromolith HR RP-18e; 50-4.6 mm • flow rate: 3.3 ml/min • gradient: 0%→100% B: 0.0→2.0 min 100% B: 2.0→2.5 min • UV detection: 220 nm • MS detection: 65-800 amu positive HPLC/MS Conditions B: • HPLC/MS: Agilent 1200/6100 • eluent A: water+0.05% formic acid • eluent B: acetonitrile+0.04% formic acid • column: Kinetex XB-C18; 2.6 μm; 50-4.6 mm • flow rate: 2.5 ml/min • gradient: 0%→100% B: 0.0→1.4 min 100% B: 1.4→2.0 min • UV detection: 220 nm • MS detection: 65-800 amu positive UPLC/MS Conditions: • UPLC/MS: Waters Acquity/SQD • eluent A: water+0.05% formic acid • eluent B: acetonitrile+0.04% formic acid • column: Kinetex XB-C18; 1.7 μm; 50-2.1 mm • flow rate: 0.9 ml/min • gradient: 2%→100% B: 0.0→1.0 min 100% B: 1.0→1.3 min • UV detection: 220 nm/254 nm/MaxPlot/TotalPlot • MS detection: 61-800 amu positive Assays c-Kit(V654A) Assay:
c-Kit(V654A) (N-terminal GST-tagged, recombinant human c-Kit, amino acids 544-end containing the V654A mutation) is incubated with 8 mM MOPS pH 7.0, 0.2 mM EDTA, 250 μM GGMEDIYEFMGGKKK, 10 mM MgAcetate and [gamma-33P-ATP] (specific activity approx. 500 cpm/pmol, concentration 200 μM). The reaction is initiated by the addition of the MgATP mix. […]

[1] = target: T2, mutant cKIT (Δ560-576 and V654A) in GIST430/654 cell line (Homo sapiens, UniProt P10721, DEL560-576/V654A); assay: cellular testing of cKIT mutant inhibitors: cKIT autophosphorylation in GIST430/654 cells (Luminex); assay type: cell-based; details: Table 2, isoxazole vs corresponding triazole derivatives; phospho-Y307-cKIT, 45 min; read-out: Inhibition (IC50) of GIST 430/654
T2 construct: GIST430/654 cell line expressing mutated constitutively active cKIT receptor tyrosine kinase; endogenous in cells; host or cells: GIST430/654
Protocol: Assay Principle for Cellular Testing of cKIT Mutant Inhibitors
The GIST430/654 cell line expressing mutated constitutively active cKIT receptor tyrosine kinase (Δ560-576 and V654A) was employed for assessing cellular potency of compounds. Cellular activity of mutant cKIT was determined by the degree of cKIT autophosphorylation at tyrosine 307 using a Luminex-based bead assay. GIST430/654 cells were plated with 25,000 cells per well of a 96-well plate in 100 μl medium (85% IMDM/15% FCS supplemented with 100 nM Imatinib). At the following day compounds were added in a serial dilution for 45 min. Then, cells were lysed with 90 μl lysis buffer (20 mM Hepes pH 7.5, 200 mM NaCl, 1.5 mM MgCl2×6H2O, 0.4 mM EDTA, 1% Triton-X-100, 1% Phosphatase-Inhibitor II, 20 mM β-Glycerolphosphat, 0.1% Protease-Inhibitor Cocktail III, 0.01% Benzonase) und lysates were cleared by centrifugation through a 96-well filter plate (0.65 μm). Samples were incubated with Luminex-beads which were coupled with an anti-total cKIT antibody overnight at 4° C. under gentle agitation. […] The amount of phospho-Y307-cKIT was determined in a Luminex 200 instrument measuring 100 events per well within 60 seconds.
Counts from samples treated with compounds were calculated as percent of control from solvent treated (0.3% DMSO) samples. Dose-response curves were fitted and IC50 values were determined using Genedata Screener software.

T2 sequence (P10721 with tags, fused parts or gaps DEL560-576/V654A): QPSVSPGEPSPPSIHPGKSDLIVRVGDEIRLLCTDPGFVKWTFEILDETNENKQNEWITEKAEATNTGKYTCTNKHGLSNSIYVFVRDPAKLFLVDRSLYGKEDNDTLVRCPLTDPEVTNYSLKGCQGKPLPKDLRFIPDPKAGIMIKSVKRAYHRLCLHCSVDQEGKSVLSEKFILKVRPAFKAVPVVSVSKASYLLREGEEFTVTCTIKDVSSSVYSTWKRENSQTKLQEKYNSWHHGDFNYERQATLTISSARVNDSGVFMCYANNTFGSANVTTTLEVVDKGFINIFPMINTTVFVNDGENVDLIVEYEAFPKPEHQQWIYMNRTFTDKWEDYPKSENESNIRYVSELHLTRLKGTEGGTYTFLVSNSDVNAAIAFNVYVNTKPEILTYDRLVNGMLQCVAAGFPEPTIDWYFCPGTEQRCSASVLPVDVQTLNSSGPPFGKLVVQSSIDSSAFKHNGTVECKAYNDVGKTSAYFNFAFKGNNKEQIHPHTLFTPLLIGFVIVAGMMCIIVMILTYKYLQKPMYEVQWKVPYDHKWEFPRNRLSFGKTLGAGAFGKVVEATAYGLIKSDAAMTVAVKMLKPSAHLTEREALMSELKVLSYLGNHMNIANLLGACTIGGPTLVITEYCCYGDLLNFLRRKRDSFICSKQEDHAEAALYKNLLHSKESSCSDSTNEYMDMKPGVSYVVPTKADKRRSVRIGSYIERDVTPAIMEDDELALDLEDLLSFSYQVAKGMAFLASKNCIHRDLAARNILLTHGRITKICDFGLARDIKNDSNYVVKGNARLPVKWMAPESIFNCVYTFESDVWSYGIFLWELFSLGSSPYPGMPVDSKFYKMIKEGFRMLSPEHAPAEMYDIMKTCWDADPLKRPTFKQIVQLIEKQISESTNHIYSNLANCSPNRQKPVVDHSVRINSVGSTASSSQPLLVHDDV
T1 sequence (P10721 544-976 V654A): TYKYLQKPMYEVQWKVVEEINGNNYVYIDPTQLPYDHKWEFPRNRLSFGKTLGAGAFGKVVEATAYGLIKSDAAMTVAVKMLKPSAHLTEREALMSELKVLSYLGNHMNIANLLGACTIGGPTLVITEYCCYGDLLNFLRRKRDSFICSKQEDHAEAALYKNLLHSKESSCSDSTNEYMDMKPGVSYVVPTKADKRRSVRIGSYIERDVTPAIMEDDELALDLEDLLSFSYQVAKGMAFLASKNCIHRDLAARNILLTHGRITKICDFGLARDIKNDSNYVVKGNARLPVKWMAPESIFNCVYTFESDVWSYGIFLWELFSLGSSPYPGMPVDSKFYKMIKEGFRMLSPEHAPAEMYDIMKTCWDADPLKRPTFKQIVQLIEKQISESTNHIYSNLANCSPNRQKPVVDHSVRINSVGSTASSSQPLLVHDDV

| Structure (SMILES) | IC50 (c-Kit(V654A)) | IC50 [1] |
| --- | --- | --- |
| COCCOc1cc2[nH]nc(-c3cn(-c4ccc(C(=O)N5CC(N6CCOCC6)C5)cc4)nn3)c2cc1F | 1.1 nM | 610 nM |
| COCCOc1cc2[nH]nc(-c3cn(-c4ccc(C(=O)N5CC[C@@H]5C(C)(C)O)cc4)nn3)c2cc1F | 5.1 nM | 220 nM |

— patent US12486260B2, “Indazolyl-isoxazole derivatives for the treatment of diseases such as cancer” (Merck Patent GmbH, priority 2019, dated 2025)
